Laboratory results published in ChEMBL document CHEMBL5550172 (Eur J Med Chem, 2024).

Key:
[1] = tested on: MCF7; experiment: Antiproliferative activity against human MCF7 cells expressing ER assessed as inhibition of cell viability at high concentration incubated for 12 days with every 3 day treatment by Alamar blue staining based assay relative to control; assay type: functional; conditions: time 12 day
[2] = target: Histone deacetylase 1 (Homo sapiens, UniProt Q13547); experiment: Inhibition of recombinant human HDAC1 using Ac-Val-Gly-(NAc)Lys-AMC as substrate incubated for 30 mins by fluorescence based assay
Chain of Histone deacetylase 1 (Q13547 whole entry): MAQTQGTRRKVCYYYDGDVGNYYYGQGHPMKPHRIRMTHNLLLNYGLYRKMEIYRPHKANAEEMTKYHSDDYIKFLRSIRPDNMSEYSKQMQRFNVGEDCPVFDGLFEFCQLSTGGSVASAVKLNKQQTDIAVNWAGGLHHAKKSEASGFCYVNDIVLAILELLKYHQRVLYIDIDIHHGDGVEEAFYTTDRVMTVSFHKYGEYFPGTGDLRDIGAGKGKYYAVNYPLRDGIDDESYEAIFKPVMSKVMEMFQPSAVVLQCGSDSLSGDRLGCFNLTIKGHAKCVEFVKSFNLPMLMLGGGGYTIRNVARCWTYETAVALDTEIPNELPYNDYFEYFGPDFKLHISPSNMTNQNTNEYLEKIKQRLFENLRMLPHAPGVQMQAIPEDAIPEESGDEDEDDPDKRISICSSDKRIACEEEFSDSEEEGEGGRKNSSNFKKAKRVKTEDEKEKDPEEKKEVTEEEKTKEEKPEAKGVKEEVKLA

[3] = target: T1, Protein deacetylase HDAC6 (Homo sapiens, UniProt Q9UBN7); experiment: Inhibition of recombinant human HDAC6 using Ac-Val-Gly-(NAc)Lys-AMC as substrate incubated for 30 mins by fluorescence based assay
T1 sequence (Q9UBN7 whole entry): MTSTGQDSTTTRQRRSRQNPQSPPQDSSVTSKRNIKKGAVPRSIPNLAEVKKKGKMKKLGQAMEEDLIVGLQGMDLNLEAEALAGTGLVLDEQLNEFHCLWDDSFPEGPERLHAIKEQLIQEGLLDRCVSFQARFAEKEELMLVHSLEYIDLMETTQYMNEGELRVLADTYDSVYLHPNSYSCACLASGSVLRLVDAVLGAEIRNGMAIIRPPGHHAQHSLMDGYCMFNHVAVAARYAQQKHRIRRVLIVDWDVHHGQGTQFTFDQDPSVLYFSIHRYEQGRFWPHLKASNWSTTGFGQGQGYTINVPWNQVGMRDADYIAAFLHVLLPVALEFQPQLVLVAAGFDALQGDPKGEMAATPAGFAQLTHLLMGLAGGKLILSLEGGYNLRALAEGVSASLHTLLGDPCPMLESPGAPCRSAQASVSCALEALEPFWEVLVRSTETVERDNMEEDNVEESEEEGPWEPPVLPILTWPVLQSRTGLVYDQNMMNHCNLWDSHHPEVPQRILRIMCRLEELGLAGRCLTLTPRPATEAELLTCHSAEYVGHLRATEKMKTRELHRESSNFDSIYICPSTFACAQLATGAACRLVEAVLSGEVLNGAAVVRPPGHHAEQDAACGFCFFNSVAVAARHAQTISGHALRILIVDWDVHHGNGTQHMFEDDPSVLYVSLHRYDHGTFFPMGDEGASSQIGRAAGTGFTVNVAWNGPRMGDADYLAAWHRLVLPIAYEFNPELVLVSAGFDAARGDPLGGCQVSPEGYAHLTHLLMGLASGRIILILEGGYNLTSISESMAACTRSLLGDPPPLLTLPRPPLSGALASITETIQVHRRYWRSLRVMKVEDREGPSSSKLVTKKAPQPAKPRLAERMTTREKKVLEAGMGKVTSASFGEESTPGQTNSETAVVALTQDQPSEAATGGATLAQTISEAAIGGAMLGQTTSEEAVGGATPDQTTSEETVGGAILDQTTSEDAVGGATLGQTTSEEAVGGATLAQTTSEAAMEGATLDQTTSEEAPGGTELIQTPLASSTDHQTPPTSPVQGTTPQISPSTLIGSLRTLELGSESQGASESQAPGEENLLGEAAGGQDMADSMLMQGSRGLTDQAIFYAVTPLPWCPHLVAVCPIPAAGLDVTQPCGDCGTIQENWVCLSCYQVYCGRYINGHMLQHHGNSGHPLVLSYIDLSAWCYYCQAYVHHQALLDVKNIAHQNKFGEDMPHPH

Compound: O=C(CCCOc1ccc(-c2sc3cc(O)ccc3c2C(=O)c2ccc(OCCN3CCCCC3)cc2)cc1)NO
- inhibition (INH) [1]: 100%
- IC50 [2]: 5990 nM
- IC50 [3]: 91 nM

Compound: O=C(CCCCCc1ccc(-c2sc3cc(O)ccc3c2C(=O)c2ccc(OCCN3CCCCC3)cc2)cc1)NO
- IC50 [2]: 12 nM
- IC50 [3]: 297 nM

Compound: O=C(CCCCCCc1ccc(-c2sc3cc(O)ccc3c2C(=O)c2ccc(OCCN3CCCCC3)cc2)cc1)NO
- IC50 [2]: 344 nM
- IC50 [3]: 333 nM

Compound: O=C(CCCCOc1ccc(-c2sc3cc(O)ccc3c2C(=O)c2ccc(OCCN3CCCCC3)cc2)cc1)NO
- IC50 [2]: 389 nM
- IC50 [3]: 123 nM

Compound: O=C(CCc1ccc(-c2sc3cc(O)ccc3c2C(=O)c2ccc(OCCN3CCCCC3)cc2)cc1)NO
- inhibition (INH) [1]: 100%
- IC50 [2]: 464 nM
- IC50 [3]: 202 nM

Compound: O=C(CCCCc1ccc(-c2sc3cc(O)ccc3c2C(=O)c2ccc(OCCN3CCCCC3)cc2)cc1)NO
- IC50 [2]: 257 nM
- IC50 [3]: 221 nM

Compound: O=C(CCCCCOc1ccc(-c2sc3cc(O)ccc3c2C(=O)c2ccc(OCCN3CCCCC3)cc2)cc1)NO
- IC50 [2]: 132 nM
- IC50 [3]: 21 nM
